Source: US20250250308A1, “METHODS AND COMPOSITIONS WITH ANTIFUNGAL ACTIVITY” (priority 2022, published 2025)

System: C. neoformans
Experiment: Survival of C. elegans infected with C. neoformans
Type: in vivo
Settings: 1 nM peptide
Procedure: FIGS. 6A-6D: EntV peptides have activity against many fungal species and strains. Survival over time of C. elegans infected with C. auris, (FIG. 6A), C. neoformans, (FIG. 6B), and C. albicans, (FIG. 6C), paired clinical isolates before (AzS: fluconazole-susceptability) and after gaining fluconazole resistance (AzR), (FIG. 6D). Peptides were added at 1 nM and fluconazole at 4 ug/ml. Statistical differences in survival were compared to animals to the DMSO vehicle control by Mantel-Cox log rank analysis. An n of 60 was used and one representative trial is shown. Exact p values from top to bottom: (FIG. 6A) <0.0001, <0.0001, (FIG. 6B) <0.0001, <0.0001, (FIG. 6C) 0.0013, 0.0004, 0.0035, (FIG. 6D) 0.0050, 0.0040, 0.5539.
EntV peptides have activity against other fungal species and strains. […] Paired clinical isolates of C. albicans, in which fluconazole-resistance had been gained following in-patient evolution were tested and it was determined that animals infected with both the original strain as well as the fluconazole-resistant descendent were protected by EntV ([…]).
Killing of C. elegans by C. albicans. […] Plates were incubated at 25° C., and worm death was scored daily. Kaplan-Meier survival curves were generated and analyzed as described in the quantification and statistical analysis section.

Sequence: VAGQLALWAVQC [12aa]
- Survival of C. elegans infected with C. neoformans: protected C. neoformans infected worms from death
